Laboratory results: PubChem BioAssay AID1919015 (Molecular Pharmacology Branch, DTP, NCI, 2023)
Several values for one entry are separate records, joined by “and”; a condition that tells them apart may be missing. Equal entries are not always repeated.

Test system: OVCAR-5 complex spheroids with HUVEC/MSC, viability, % test/control
Assay: Anticancer human tumor OVCAR-5 cell line growth inhibition [AhR];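 also: spheroids exposed to compounds for 7 days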;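 as to viability, T/C: 100% = DMSO vehicle control wells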
Conditions: for viability, T/C: stronger effect = lower value
Procedure, shortened: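 Spheroids combined tumor cells with HUVEC endothelial cells and human MSCs as stroma. AhR antagonists were paired with standard or investigational drugs, each dosed in half-log steps down from near clinical Cmax, or from 10 microM where Cmax was unknown.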

[1] = curve of first compound, second compound 0.1 µM
[2] = curve of first compound, second compound 0.316 µM
[3] = curve of first compound, second compound 1 µM
[4] = curve of first compound, second compound 3.16 µM
[5] = curve of first compound, second compound 10 µM
[6] = second compound 0.1 µM, first compound 0.0316 µM
[7] = second compound 0.1 µM, first compound 0.1 µM
[8] = second compound 0.1 µM, first compound 0.316 µM
[9] = second compound 0.1 µM, first compound 1 µM
[10] = second compound 0.1 µM, first compound 3.16 µM
[11] = second compound 0.1 µM, first compound 10 µM
[12] = second compound 0.316 µM, first compound 0.0316 µM
[13] = second compound 0.316 µM, first compound 0.1 µM
[14] = second compound 0.316 µM, first compound 0.316 µM
[15] = second compound 0.316 µM, first compound 1 µM
[16] = second compound 0.316 µM, first compound 3.16 µM
[17] = second compound 0.316 µM, first compound 10 µM
[18] = second compound 1 µM, first compound 0.0316 µM
[19] = second compound 1 µM, first compound 0.1 µM
[20] = second compound 1 µM, first compound 0.316 µM
[21] = second compound 1 µM, first compound 1 µM
[22] = second compound 1 µM, first compound 3.16 µM
[23] = second compound 1 µM, first compound 10 µM
[24] = second compound 3.16 µM, first compound 0.0316 µM
[25] = second compound 3.16 µM, first compound 0.1 µM
[26] = second compound 3.16 µM, first compound 0.316 µM
[27] = second compound 3.16 µM, first compound 1 µM
[28] = second compound 3.16 µM, first compound 3.16 µM
[29] = second compound 3.16 µM, first compound 10 µM
[30] = second compound 10 µM, first compound 0.0316 µM
[31] = second compound 10 µM, first compound 0.1 µM
[32] = second compound 10 µM, first compound 0.316 µM
[33] = second compound 10 µM, first compound 1 µM
[34] = second compound 10 µM, first compound 3.16 µM
[35] = second compound 10 µM, first compound 10 µM

In the case of `COc1cc(Nc2ncc3c(n2)-c2ccc(Cl)cc2C(c2c(F)cccc2OC)=NC3)ccc1C(=O)O` + Cc1cncc(-c2nc(NCCc3c[nH]c4ccccc34)c3ncn(C(C)C)c3n2)c1, the IC50 [1] is reported as 2650 nM, the IC50 [2] is reported as 3040 nM and the IC50 [3] is reported as 2740 nM. It also gave an IC50 [4] of 875 nM, an IC50 [5] of less than 31.6 nM and a viability, T/C [6] of 88.1%. For the same compound, the viability, T/C [7] was 83.6%, the viability, T/C [8] was 63.6% and the viability, T/C [9] was 58%. The viability, T/C [10] was 49.2%, the viability, T/C [11] was 45.6% and the viability, T/C [12] was 87.3%. It also gave a viability, T/C [13] of 80.9%, a viability, T/C [14] of 63.3% and a viability, T/C [15] of 59.9%. The viability, T/C [16] was 50.2%, the viability, T/C [17] was 42.5% and the viability, T/C [18] was 85.5%. It also gave a viability, T/C [19] of 79%, a viability, T/C [20] of 60.5% and a viability, T/C [21] of 59.5%. The viability, T/C [22] was 48.3%, the viability, T/C [23] was 44.1% and the viability, T/C [24] was 69.8%. It also gave a viability, T/C [25] of 68.6%, a viability, T/C [26] of 56.7% and a viability, T/C [27] of 49.8%. For the same compound, the viability, T/C [28] was 46.9%, the viability, T/C [29] was 44% and the viability, T/C [30] was 9.88%. It also gave a viability, T/C [31] of 9.9%, a viability, T/C [32] of 8.88% and a viability, T/C [33] of 9.21%. For the same compound, the viability, T/C [34] was 8.92% and the viability, T/C [35] was 12.2%.
Work on `NS(=O)(=O)OCC1CC(n2ccc3c(NC4CCc5ccccc54)ncnc32)CC1O` (configuration not stated) + Cc1cncc(-c2nc(NCCc3c[nH]c4ccccc34)c3ncn(C(C)C)c3n2)c1 yielded an IC50 [1] of 152 nM, an IC50 [2] of 114 nM and an IC50 [3] of 91.8 nM. The IC50 [4] was 98 nM, the IC50 [5] was less than 31.6 nM and the viability, T/C [6] was 86.4%. It also gave a viability, T/C [7] of 57.5%, a viability, T/C [8] of 37.2% and a viability, T/C [9] of 17.6%. It also gave a viability, T/C [10] of 13.1%, a viability, T/C [11] of 12.2% and a viability, T/C [12] of 78%. For the same compound, the viability, T/C [13] was 51.5%, the viability, T/C [14] was 33% and the viability, T/C [15] was 16.5%. It also gave a viability, T/C [16] of 13.6%, a viability, T/C [17] of 12.3% and a viability, T/C [18] of 69.7%. It also gave a viability, T/C [19] of 47.4%, a viability, T/C [20] of 31.6% and a viability, T/C [21] of 16.6%. The viability, T/C [22] was 11.3%, the viability, T/C [23] was 10.7% and the viability, T/C [24] was 64%. For the same compound, the viability, T/C [25] was 50.2%, the viability, T/C [26] was 22.7% and the viability, T/C [27] was 10.7%. It also gave a viability, T/C [28] of 6.17%, a viability, T/C [29] of 4.99% and a viability, T/C [30] of 3.84%. For the same compound, the viability, T/C [31] was 3.41%, the viability, T/C [32] was 2.74% and the viability, T/C [33] was 2.03%. It also gave a viability, T/C [34] of 0.83% and a viability, T/C [35] of 0.48%.
For `COc1cccc2c1C(=O)c1c(O)c3c(c(O)c1C2=O)CC(O)(C(=O)CO)CC3OC1CC(N)C(O)C(C)O1` (configuration not stated), the viability, T/C (compound 0.0316 µM) was 66.2% and 56.6% and 74%, the viability, T/C (compound 0.1 µM) was 55.2% and 47.4% and 58.4% and the viability, T/C (compound 0.316 µM) was 49.6% and 41.8% and 46.6%. The viability, T/C (compound 1 µM) was 28.7% and 24.1% and 25.6%, the viability, T/C (compound 3.16 µM) was 1.66% and 1.72% and 3.06% and the viability, T/C (compound 10 µM) was 1.46% and 1.1% and 1.11%. For the same compound, the IC50 (curve of compound) was 316 nM and 114 nM and 223 nM.
